Experimental data reported in PubChem BioAssay (NCI).
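Five concentrations, 48 hours, 96-well plates. GI50 is the concentration that inhibits growth by half. The concentration for full growth arrest is given as TGI.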

Legend:
Experiment in all cases: NCI tumour cell line growth inhibition, 48 h
HT29 colon = tested on: HT29 colon
MDA-MB-231 breast = tested on: MDA-MB-231 breast
NCI-H226 lung = tested on: NCI-H226 lung
HOP-62 NSCLC = tested on: HOP-62 NSCLC
MCF7 breast = tested on: MCF7 breast
SN12C renal = tested on: SN12C renal
OVCAR-8 ovarian = tested on: OVCAR-8 ovarian
SW-620 colon = tested on: SW-620 colon
PC-3 prostate = tested on: PC-3 prostate
A498 renal = tested on: A498 renal

COC(=O)CN1c2nc(C#N)c(C#N)nc2N(CC(=O)OC)c2nc(C#N)c(C#N)nc21
TGI (HT29 colon): 12.1 µM | TGI (MDA-MB-231 breast): > 52.9 µM | TGI (NCI-H226 lung): > 100 µM | TGI (HOP-62 NSCLC): 34.3 µM | TGI (MCF7 breast): 18.4 µM | TGI (SN12C renal): > 100 µM | TGI (OVCAR-8 ovarian): > 22.3 µM | TGI (SW-620 colon): > 25.9 µM | TGI (PC-3 prostate): 18.4 µM | TGI (A498 renal): > 52 µM

N#CC(N=Nc1ccc(Cl)cc1)c1nc2ccccc2o1 (centres undefined)
TGI (HT29 colon): > 100 µM | TGI (MDA-MB-231 breast): > 100 µM | TGI (NCI-H226 lung): > 100 µM | TGI (HOP-62 NSCLC): > 100 µM | TGI (MCF7 breast): > 100 µM | TGI (SN12C renal): > 100 µM | TGI (OVCAR-8 ovarian): > 100 µM | TGI (PC-3 prostate): > 100 µM | TGI (A498 renal): > 100 µM

Cc1cn(-c2cc(C(=O)Nc3cccc(-n4ccc5c(NC(=O)c6ccccc6)nccc54)c3)cc(C(F)(F)F)c2)cn1
GI50 (HT29 colon): 0.29 µM | TGI (HT29 colon): 1.04 µM | GI50 (MDA-MB-231 breast): 0.68 µM | TGI (MDA-MB-231 breast): 3.62 µM | GI50 (NCI-H226 lung): 0.524 µM | TGI (NCI-H226 lung): 17.1 µM | GI50 (HOP-62 NSCLC): 0.628 µM | TGI (HOP-62 NSCLC): 15.3 µM | GI50 (MCF7 breast): 0.361 µM | TGI (MCF7 breast): 2.39 µM | GI50 (SN12C renal): 1.04 µM | TGI (SN12C renal): 17.1 µM | GI50 (OVCAR-8 ovarian): 0.419 µM | TGI (OVCAR-8 ovarian): 2.99 µM | GI50 (SW-620 colon): 0.39 µM | TGI (SW-620 colon): 1.78 µM | GI50 (PC-3 prostate): 0.393 µM | TGI (PC-3 prostate): 15.6 µM | GI50 (A498 renal): 0.223 µM | TGI (A498 renal): 1.71 µM

CCOC(=O)C1(C(=O)OCC)COS(=O)OC1
TGI (HT29 colon): > 100 µM | TGI (MDA-MB-231 breast): 35.3 µM | TGI (NCI-H226 lung): 40.6 µM | TGI (MCF7 breast): 36.6 µM | TGI (SN12C renal): > 100 µM | TGI (OVCAR-8 ovarian): > 100 µM | TGI (SW-620 colon): 36.1 µM | TGI (PC-3 prostate): > 100 µM | TGI (A498 renal): > 100 µM

C/C1=C\CC[C@@]2(C)O[C@@H]2C[C@@H](C2(C)CO2)CC/C(C)=C/CC1 (some centres undefined)
TGI (HT29 colon): > 100 µM | TGI (MDA-MB-231 breast): 47.3 µM | TGI (NCI-H226 lung): 30.3 µM | TGI (HOP-62 NSCLC): 97.3 µM | TGI (MCF7 breast): 37.1 µM | TGI (SN12C renal): 33.5 µM | TGI (OVCAR-8 ovarian): 39.6 µM | TGI (SW-620 colon): > 100 µM | TGI (PC-3 prostate): 82.2 µM | TGI (A498 renal): > 100 µM

CC1CN=C(N(C(=O)Nc2ccc(F)c(Cl)c2)c2ccccc2)S1 (centres undefined)
TGI (HT29 colon): 58 µM | TGI (MDA-MB-231 breast): 38.9 µM | TGI (HOP-62 NSCLC): 61.6 µM | TGI (MCF7 breast): 25.9 µM | TGI (SN12C renal): 49.9 µM | TGI (OVCAR-8 ovarian): 65.7 µM | TGI (SW-620 colon): 90.3 µM | TGI (PC-3 prostate): 95.5 µM | TGI (A498 renal): 62.1 µM

O=c1ccn(C2OC(CO)C(P(=O)(O)O)C2O)c(=O)[nH]1 (centres undefined)
TGI (HT29 colon): > 100 µM | TGI (MDA-MB-231 breast): > 100 µM | TGI (NCI-H226 lung): > 100 µM | TGI (HOP-62 NSCLC): > 100 µM | TGI (MCF7 breast): > 100 µM | TGI (SN12C renal): > 100 µM | TGI (OVCAR-8 ovarian): > 100 µM | TGI (SW-620 colon): > 100 µM | TGI (PC-3 prostate): > 100 µM | TGI (A498 renal): > 100 µM

COc1ccc(-c2c3c([nH]c(=S)c2C#N)CC(C)(C)CC3=O)cc1
TGI (HT29 colon): > 100 µM | TGI (MDA-MB-231 breast): > 100 µM | TGI (NCI-H226 lung): > 100 µM | TGI (HOP-62 NSCLC): > 100 µM | TGI (MCF7 breast): > 100 µM | TGI (SN12C renal): > 100 µM | TGI (OVCAR-8 ovarian): > 100 µM | TGI (SW-620 colon): > 100 µM | TGI (PC-3 prostate): > 100 µM | TGI (A498 renal): > 100 µM

COc1cc2cc(Oc3ccc(NC(=O)c4cc(C(F)(F)F)cc(C(F)(F)F)c4)cc3)c(C)nc2cc1OC
GI50 (HT29 colon): > 50 µM | TGI (HT29 colon): > 50 µM | GI50 (MDA-MB-231 breast): 2.55 µM | TGI (MDA-MB-231 breast): > 50 µM | GI50 (NCI-H226 lung): 6.2 µM | TGI (NCI-H226 lung): > 50 µM | GI50 (HOP-62 NSCLC): > 50 µM | TGI (HOP-62 NSCLC): > 50 µM | GI50 (MCF7 breast): 1.91 µM | TGI (MCF7 breast): > 50 µM | GI50 (SN12C renal): 3.49 µM | TGI (SN12C renal): > 50 µM | GI50 (SW-620 colon): 4.35 µM | TGI (SW-620 colon): > 50 µM | GI50 (PC-3 prostate): 1.66 µM | TGI (PC-3 prostate): > 50 µM | GI50 (A498 renal): 1.13 µM | TGI (A498 renal): > 50 µM

CC[n+]1[b-](C(C)(C)C)n(/N=C/C(C)(C)C)[b-](C(C)(C)C)[n+]1CC
TGI (HT29 colon): > 100 µM | TGI (MDA-MB-231 breast): > 100 µM | TGI (NCI-H226 lung): > 100 µM | TGI (HOP-62 NSCLC): > 100 µM | TGI (MCF7 breast): > 100 µM | TGI (SN12C renal): > 100 µM | TGI (OVCAR-8 ovarian): > 100 µM | TGI (SW-620 colon): > 100 µM | TGI (PC-3 prostate): > 100 µM

Cc1ccc([N+](=O)[O-])cc1N=NC(=O)NNc1cc([N+](=O)[O-])ccc1C
TGI (HT29 colon): 45 µM | TGI (MDA-MB-231 breast): 47.8 µM | TGI (HOP-62 NSCLC): > 100 µM | TGI (MCF7 breast): 67.3 µM | TGI (OVCAR-8 ovarian): 70 µM | TGI (PC-3 prostate): > 100 µM | TGI (A498 renal): 84.4 µM

COC(=O)c1cc2c(cc1CC1Cc3cc4c(cc3C1)CCC4)CCC2
TGI (HT29 colon): > 100 µM | TGI (MDA-MB-231 breast): > 100 µM | TGI (NCI-H226 lung): > 100 µM | TGI (HOP-62 NSCLC): > 100 µM | TGI (MCF7 breast): 91.2 µM | TGI (SN12C renal): > 100 µM | TGI (OVCAR-8 ovarian): > 100 µM | TGI (SW-620 colon): > 100 µM | TGI (PC-3 prostate): > 100 µM | TGI (A498 renal): > 100 µM

CCCCNC(=S)N/N=C/c1cccc(C)n1
TGI (MDA-MB-231 breast): > 100 µM | TGI (NCI-H226 lung): 62.2 µM | TGI (HOP-62 NSCLC): 55.2 µM | TGI (MCF7 breast): > 100 µM | TGI (SN12C renal): > 100 µM | TGI (OVCAR-8 ovarian): > 100 µM | TGI (SW-620 colon): > 100 µM | TGI (PC-3 prostate): > 100 µM | TGI (A498 renal): > 100 µM

C[C@@H](Cl)[C@H]1CCCN(Cc2ccc(Br)cc2)C1
TGI (HT29 colon): > 12.5 µM | TGI (MDA-MB-231 breast): > 12.5 µM | TGI (NCI-H226 lung): > 12.5 µM | TGI (HOP-62 NSCLC): > 12.5 µM | TGI (MCF7 breast): > 12.5 µM | TGI (OVCAR-8 ovarian): > 12.5 µM | TGI (SW-620 colon): > 12.5 µM | TGI (PC-3 prostate): > 12.5 µM | TGI (A498 renal): > 12.5 µM

COc1ccc(S(=O)(=O)N2C(=O)CCC2C(=O)NN)cc1 (centres undefined)
TGI (HT29 colon): > 100 µM | TGI (MDA-MB-231 breast): > 100 µM | TGI (NCI-H226 lung): > 100 µM | TGI (HOP-62 NSCLC): > 100 µM | TGI (MCF7 breast): > 100 µM | TGI (SN12C renal): > 100 µM | TGI (OVCAR-8 ovarian): > 100 µM | TGI (SW-620 colon): > 100 µM | TGI (PC-3 prostate): > 100 µM | TGI (A498 renal): > 100 µM

COC(=O)CCc1cc(OC)c2c(c1)[C@H](C(=O)OC)[C@@H](c1ccc(O)c(OC)c1)O2
TGI (HT29 colon): > 100 µM | TGI (MDA-MB-231 breast): > 100 µM | TGI (NCI-H226 lung): > 100 µM | TGI (HOP-62 NSCLC): > 100 µM | TGI (MCF7 breast): > 100 µM | TGI (SN12C renal): > 100 µM | TGI (OVCAR-8 ovarian): > 100 µM | TGI (SW-620 colon): > 100 µM | TGI (PC-3 prostate): > 100 µM | TGI (A498 renal): 74.5 µM

NCCCN1CCN(CCCNc2ccc3nnn4c5ccccc5c(=O)c2c34)CC1
TGI (HT29 colon): 50.3 µM | TGI (MDA-MB-231 breast): 29.1 µM | TGI (HOP-62 NSCLC): > 100 µM | TGI (MCF7 breast): 74.7 µM | TGI (SN12C renal): 30.7 µM | TGI (OVCAR-8 ovarian): > 100 µM | TGI (SW-620 colon): > 100 µM | TGI (PC-3 prostate): 35.5 µM | TGI (A498 renal): 40.6 µM

Cc1ccc(OCCn2cc(Nc3ccccc3)c(=O)n(CCOc3ccc(C)cc3)c2=O)cc1
TGI (HT29 colon): > 100 µM | TGI (MDA-MB-231 breast): > 100 µM | TGI (NCI-H226 lung): > 100 µM | TGI (MCF7 breast): > 100 µM | TGI (SN12C renal): > 100 µM | TGI (OVCAR-8 ovarian): > 100 µM | TGI (SW-620 colon): > 100 µM | TGI (PC-3 prostate): > 100 µM | TGI (A498 renal): > 100 µM

C=C1c2cc3c(cc2CC12Cc1cc4c(cc1C2=O)CCC4)CCC3 (centres undefined)
TGI (HT29 colon): > 100 µM | TGI (MDA-MB-231 breast): > 100 µM | TGI (HOP-62 NSCLC): > 100 µM | TGI (MCF7 breast): > 100 µM | TGI (OVCAR-8 ovarian): > 100 µM | TGI (SW-620 colon): > 100 µM | TGI (PC-3 prostate): > 100 µM | TGI (A498 renal): > 100 µM

CC1=C2C(=C[C@H]3[C@]4(C)CCCC(C)(C)[C@H]4CC[C@]34O[C@H]24)OC1=O
TGI (HT29 colon): > 100 µM | TGI (MDA-MB-231 breast): > 100 µM | TGI (NCI-H226 lung): > 100 µM | TGI (HOP-62 NSCLC): > 100 µM | TGI (MCF7 breast): > 100 µM | TGI (SN12C renal): > 100 µM | TGI (SW-620 colon): > 100 µM | TGI (PC-3 prostate): > 100 µM | TGI (A498 renal): > 100 µM
